The values below are quoted from earlier work in patent US20250345461A1, “METHOD FOR REPAIRING HAIR CYCLE-RELATED GENES AND METHOD FOR TREATING HAIR CYCLE-RELATED DISEASES USING MIR-520D-5P” (LIVIUS PTE. LTD., priority 2021, published 2025).

Counter-ions that a name gives are not always drawn. Like-named read-outs stand apart in the source and are kept apart here.

As for `CCCCC(CC)CNC(=N)NC(=N)NCCCCCCNC(=N)NC(=N)NCC(CC)CCCC` (stereo not drawn) [Alexidine], the “Inhibition of cancer growth (concentration in known indications)” value (Inhibition of cancer growth) is given as “Inhibition of cancer growth: 1 mM”.
Take `CC(C)NCC(O)COc1ccc(CCOCC2CC2)cc1` (stereo not drawn) [Betaxolol]: for the setting “Essential hypertension, parenchymal renal hypertension, angina, glaucoma, ocular hypertension”, the “Maximum effective blood concentration at the time of administration or concentration in an external preparation in known indications” value (“Maximum effective blood concentration” below) is on record as “Administration: 41.8 ng/mL”.
With `CC(C)NCC(O)COc1ccc(COCCOC(C)C)cc1` (stereo not drawn) [Bisoprolol, Bisoprolol fumarate], the “Maximum effective blood concentration” value (Chronic heart failure due to essential hypertension, angina, ischemic heart disease, and dilated cardiomyopathy) is reported as “Administration: 100 ng/mL”.
In the case of `C=C(CC)C(=O)c1ccc(OCC(=O)O)c(Cl)c1Cl` [Ethacrynic acid], the “Maximum effective blood concentration” value (Edematous diseases) was “Administration: 100 μM”.
With `CN[C@H](CC(C)C)C(=O)N[C@H]1C(=O)N[C@@H](CC(N)=O)C(=O)N[C@H]2C(=O)N[C@H]3C(=O)N[C@H](C(=O)N[C@H](C(=O)O)c4cc(O)cc(O)c4-c4cc3ccc4O)[C@H](O)c3ccc(c(Cl)c3)Oc3cc2cc(c3O[C@@H]2O[C@H](CO)[C@@H](O)[C@H](O)[C@H]2O[C@H]2C[C@](C)(N)[C@H](O)[C@H](C)O2)Oc2ccc(cc2Cl)[C@H]1O` [Vancomycin], the “Maximum effective blood concentration” value (MRSA infection) is “Administration: 30 μg/mL”.
Take `CCOc1nc2cccc(C(=O)O)c2n1Cc1ccc(-c2ccccc2-c2nnn[nH]2)cc1` [Candesartan]: the “Maximum effective blood concentration” value (Hypertension) is “Administration: 75 ng/mL”.
For the compound `C=CCOc1ccccc1OCC(O)CNC(C)C` (stereo not drawn) [Oxprenolol], the “Maximum effective blood concentration” value (Tachyarrhythmia, angina) is recorded as “Administration: 30.18 μg/μL”.
Regarding `CCCNC(=O)NS(=O)(=O)c1ccc(Cl)cc1` [Chlorpropamide], under “Type 2 diabetes”, the “Maximum effective blood concentration” value is “Administration: 30 μg/mL”.
With Colistin, for the setting “Escherichia coli, Shigella, multidrug-resistant Pseudomonas aeruginosa, infectious enteritis”, the “Maximum effective blood concentration” value is recorded as “Administration: 4.4 μg/mL”.
